The compounds below were run against T1, human HSL (Homo sapiens, UniProt Q05469) (assay: Human Hormone-Sensitive Lipase (HSL) Enzyme Inhibition Assay). Details: colorimetric assay, 2,3-dimercapto-1-propanol tributyrate (DMPT) substrate, 37° C. for 20 minutes, absorbance at 405 nm; read-out: HSL hum IC50.
T1 construct: overlapping PCR to generate a full length human HSL ORF with a 3′-His6 tag; His6 (C); made in house; host or cells: High 5 insect cells (baculovirus, pFast-BAC)
T1 sequence (Q05469 1-1076): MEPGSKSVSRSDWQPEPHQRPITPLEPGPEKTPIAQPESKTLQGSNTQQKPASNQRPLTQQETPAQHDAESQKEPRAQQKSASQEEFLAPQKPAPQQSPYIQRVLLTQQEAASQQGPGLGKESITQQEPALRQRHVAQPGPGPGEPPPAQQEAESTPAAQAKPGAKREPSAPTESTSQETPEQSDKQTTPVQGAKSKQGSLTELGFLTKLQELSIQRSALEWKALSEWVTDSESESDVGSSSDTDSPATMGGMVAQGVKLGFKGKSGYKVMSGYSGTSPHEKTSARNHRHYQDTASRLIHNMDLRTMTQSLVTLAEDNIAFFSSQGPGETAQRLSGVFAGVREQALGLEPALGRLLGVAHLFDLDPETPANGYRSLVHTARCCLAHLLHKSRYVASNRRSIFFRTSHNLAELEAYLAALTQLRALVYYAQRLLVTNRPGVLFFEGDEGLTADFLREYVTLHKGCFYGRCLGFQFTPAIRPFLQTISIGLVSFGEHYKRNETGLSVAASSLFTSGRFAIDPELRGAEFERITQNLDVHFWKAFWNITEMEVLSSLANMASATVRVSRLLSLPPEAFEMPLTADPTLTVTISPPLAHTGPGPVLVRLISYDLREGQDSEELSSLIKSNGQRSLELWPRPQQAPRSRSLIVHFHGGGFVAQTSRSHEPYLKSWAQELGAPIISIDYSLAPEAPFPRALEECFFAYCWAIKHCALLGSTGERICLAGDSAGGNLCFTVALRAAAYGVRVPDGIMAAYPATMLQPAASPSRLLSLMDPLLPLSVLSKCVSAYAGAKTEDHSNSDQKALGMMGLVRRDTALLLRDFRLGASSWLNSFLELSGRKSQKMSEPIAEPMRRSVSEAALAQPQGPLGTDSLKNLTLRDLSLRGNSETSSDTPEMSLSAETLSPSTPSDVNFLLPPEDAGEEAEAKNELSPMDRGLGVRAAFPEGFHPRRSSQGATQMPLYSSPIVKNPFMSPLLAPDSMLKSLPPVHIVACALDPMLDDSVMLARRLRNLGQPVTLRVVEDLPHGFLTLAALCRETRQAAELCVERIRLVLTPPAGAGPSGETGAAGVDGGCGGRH
Type: biochemical
In short: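 Colorimetric thioester hydrolysis: compounds in DMSO series mixed with DMPT (1.5 mM) in MOPS pH 7.2 with BSA, then baculovirus-expressed His6-tagged full-length human HSL added, 37° C, 20 min. DTNB plus detergents added, 15 min room temperature, absorbance at 405 nm.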

IC50 [nM]	Compound
70	CCC(C)c1ccc(N2CCC3(CCN(S(=O)(=O)CC(C)C)CC3)C2=O)cc1 (centres unmarked) [Example 61, 2-(4-sec-Butyl-phenyl)-8-(2-methyl-propane-1-sulfonyl)-2,8-diaza-spiro[4.5]decan-1-one]
140	CN(CCc1ccccn1)C(=O)N1CCC2(CC1)CCN(c1ccc(OC(F)(F)F)cc1)C2=O [Example 283, 1-Oxo-2-(4-trifluoromethoxy-phenyl)-2,8-diaza-spiro[4.5]decane-8-carboxylic acid methyl-(2-pyridin-2-yl-ethyl)-amide]
350	CCN(Cc1ccncc1)C(=O)N1CCC2(CC1)CCN(c1ccc(OC(F)(F)F)cc1)C2=O [Example 307, 1-Oxo-2-(4-trifluoromethoxy-phenyl)-2,8-diaza-spiro[4.5]decane-8-carboxylic acid ethyl-pyridin-4-ylmethyl-amide]
40	O=C1N(c2ccc(C(O)C(F)F)cc2)CCC12CCN(S(=O)(=O)c1ccccc1C(F)(F)F)CC2 (racemic) [Example 176, (rac)-2-(4-(2,2-difluoro-1-hydroxyethyl)phenyl)-8-(2-(trifluoromethyl)phenylsulfonyl)-2,8-diazaspiro[4.5]decan-1-one]
100	CCc1ccc(N2CCC3(CCN(S(=O)(=O)CC(C)C)CC3)C2=O)cc1 [Example 24, 2-(4-Ethyl-phenyl)-8-(2-methyl-propane-1-sulfonyl)-2,8-diaza-spiro[4.5]decan-1-one]
80	CC(C)CN(C)S(=O)(=O)N1CCC2(CCN(c3ccc(OC(F)(F)F)cc3)C2=O)CC1 [Example 293, 1-Oxo-2-(4-trifluoromethoxy-phenyl)-2,8-diaza-spiro[4.5]decane-8-sulfonic acid isobutyl-methyl-amide]
40	COCCOc1ccc(N2CCC3(CCN(S(=O)(=O)c4ccccc4OC(F)(F)F)CC3)C2=O)cc1 [Example 106, 2-[4-(2-Methoxy-ethoxy)-phenyl]-8-(2-trifluoromethoxy-benzenesulfonyl)-2,8-diaza-spiro[4.5]decan-1-one]
40	CC(C)Oc1ccc(N2CCC3(CCN(S(=O)(=O)c4ccccc4)CC3)C2=O)cc1 [Example 6, 8-Benzenesulfonyl-2-(4-isopropoxy-phenyl)-2,8-diaza-spiro[4.5]decan-1-one]
260	Cn1cnc(S(=O)(=O)N2CCC3(CCN(c4ccc(OC(F)(F)F)cc4)C3=O)CC2)c1 [Example 181, 8-(1-Methyl-1H-imidazole-4-sulfonyl)-2-(4-trifluoromethoxy-phenyl)-2,8-diaza-spiro[4.5]decan-1-one]
160	CC(C)CS(=O)(=O)N1CCC2(CCN(c3ccc(OC(C)C)cc3)C2=O)CC1 [Example 23, 2-(4-Isopropoxy-phenyl)-8-(2-methyl-propane-1-sulfonyl)-2,8-diaza-spiro[4.5]decan-1-one]
200	CC(C)(O)CS(=O)(=O)N1CCC2(CCN(c3ccc(OC(F)(F)F)cc3)C2=O)CC1 [Example 212, 8-(2-Hydroxy-2-methyl-propane-1-sulfonyl)-2-(4-trifluoromethoxy-phenyl)-2,8-diaza-spiro[4.5]decan-1-one]
140	CS(=O)(=O)c1ccccc1S(=O)(=O)N1CCC2(CCN(c3ccc(OC(F)(F)F)cc3)C2=O)CC1 [Example 51, 8-(2-Methanesulfonyl-benzenesulfonyl)-2-(4-trifluoromethoxy-phenyl)-2,8-diaza-spiro[4.5]decan-1-one]
200	CCCS(=O)(=O)N1CCC2(CCN(c3ccc(C4CC4)cc3)C2=O)CC1 [Example 39, 2-(4-Cyclopropyl-phenyl)-8-(propane-1-sulfonyl)-2,8-diaza-spiro[4.5]decan-1-one]
40	O=C1N(c2ccc(OC(F)(F)F)cc2)CCC12CCN(S(=O)(=O)c1cccnc1NCCO)CC2 [Example 192, 8-[2-(2-Hydroxy-ethylamino)-pyridine-3-sulfonyl]-2-(4-trifluoromethoxy-phenyl)-2,8-diaza-spiro[4.5]decan-1-one]
90	O=C1N(c2ccc(CC(F)(F)F)cc2)CCC12CCN(S(=O)(=O)c1ccc(F)cc1C(F)(F)F)CC2 [Example 81, 8-(4-Fluoro-2-trifluoromethyl-benzenesulfonyl)-2-[4-(2,2,2-trifluoro-ethyl)-phenyl]-2,8-diaza-spiro[4.5]decan-1-one]
280	O=C1N(c2ccc(Oc3cccnc3)cc2)CCC12CCN(S(=O)(=O)c1ccccc1Cl)CC2 [Example 132, 8-(2-Chloro-benzenesulfonyl)-2-[4-(pyridin-3-yloxy)-phenyl]-2,8-diaza-spiro[4.5]decan-1-one]
170	CC(C)Oc1ccc(N2CCC3(CCN(S(=O)(=O)CC4CCC4)CC3)C2=O)cc1 [Example 92, 8-Cyclobutylmethanesulfonyl-2-(4-isopropoxy-phenyl)-2,8-diaza-spiro[4.5]decan-1-one]
100	CC1CCCCN1C(=O)N1CCC2(CC1)CCN(c1ccc(OC(F)(F)F)cc1)C2=O (centres unmarked) [Example 272, 8-(2-Methyl-piperidine-1-carbonyl)-2-(4-trifluoromethoxy-phenyl)-2,8-diaza-spiro[4.5]decan-1-one]
30	O=C1N(c2ccc(OC(F)(F)F)cc2)CCC12CCN(S(=O)(=O)c1ccccc1Cl)CC2 [Example 1, 8-(2-Chloro-benzenesulfonyl)-2-(4-trifluoromethoxy-phenyl)-2,8-diaza-spiro[4.5]decan-1-one]
50	CC(Oc1ccc(N2CCC3(CCN(S(=O)(=O)c4ccccc4)CC3)C2=O)cn1)C(F)(F)F (racemic) [Example 25, (rac)-8-Benzenesulfonyl-2-[6-(2,2,2-trifluoro-1-methyl-ethoxy)-pyridin-3-yl]-2,8-diaza-spiro[4.5]decan-1-one]
50	O=C1N(c2ccc(OC(F)(F)F)cc2)CCC12CCN(S(=O)(=O)c1cccnc1OCc1ccccc1)CC2 [Example 195, 8-(2-Benzyloxy-pyridine-3-sulfonyl)-2-(4-trifluoromethoxy-phenyl)-2,8-diaza-spiro[4.5]decan-1-one]
60	O=C1N(c2ccc(OC(F)(F)F)cc2)CCC12CCN(S(=O)(=O)CC1(O)CCCC1)CC2 [Example 210, 8-(1-Hydroxy-cyclopentylmethanesulfonyl)-2-(4-trifluoromethoxy-phenyl)-2,8-diaza-spiro[4.5]decan-1-one]
30	O=C1N(c2ccc(OCC(F)(F)F)cc2)CCC12CCN(S(=O)(=O)c1cccnc1Cl)CC2 [Example 206, 8-(2-Chloro-pyridine-3-sulfonyl)-2-[4-(2,2,2-trifluoro-ethoxy)-phenyl]-2,8-diaza-spiro[4.5]decan-1-one]
20	COCCc1ccc(N2CCC3(CCN(S(=O)(=O)c4ccccc4OC(F)(F)F)CC3)C2=O)cc1 [Example 105, 2-[4-(2-Methoxy-ethyl)-phenyl]-8-(2-trifluoromethoxy-benzenesulfonyl)-2,8-diaza-spiro[4.5]decan-1-one]
60	CC(C)(O)c1ccc(N2CCC3(CCN(S(=O)(=O)c4ccccc4C(F)(F)F)CC3)C2=O)cc1 [Example 174, 2-[4-(1-Hydroxy-1-methyl-ethyl)-phenyl]-8-(2-trifluoromethyl-benzenesulfonyl)-2,8-diaza-spiro[4.5]decan-1-one]
90	Cc1cc(CS(=O)(=O)N2CCC3(CCN(c4ccc(OC(F)(F)F)cc4)C3=O)CC2)no1 [Example 232, 8-(5-Methyl-isoxazol-3-ylmethanesulfonyl)-2-(4-trifluoromethoxy-phenyl)-2,8-diaza-spiro[4.5]decan-1-one]

Reference: US8329904B2, “Azacyclic derivatives” (Hoffmann-La Roche Inc., priority 2009, dated 2012)
